The test system of one assay is PD-L1 RNA expression. Nature of the assay: PD-L1 RNA expression by qRT-PCR in treated NSCLC cell lines (FIG. 3, 4A). It counts as cell-based, human. Here is the method: (§1) NSCLC cell lines were procured from American Type Cell Culture (ATCC) or academic sources and cultured in RPMI 1640 medium supplemented with 10% fetal bovine serum (FBS) and 2 mM L-glutamine. Cells were detached for splitting and/or experimental analysis following a PBS wash and incubation with Accutase detachment medium (Sigma). Cells were treated with 0.1 mM trichostatin A (“TSA,” Sigma) and/or 1 ng/mL interferon gamma (IFNγ) for 24 hours and 1 mM 5-azacitidine-dC (5-aza-dC, Sigma), for 3 days qd (i.e., once a day) or 6 days q2d (i.e., every other day).
(§2) Buffer RLT Plus (Qiagen) was used to lyse the cells for RNA and DNA extraction from the same lysate using the AllPrep DNA/RNA Mini Kit (Qiagen). RNA expression was analyzed by microarray on the GeneChip Human Genome U133 Plus 2.0 Array (Affymetrix) by Asuragen, Inc, and by qPCR using TaqMan Gene Expression Assays (Life Technologies). Data was analyzed using Genomics Suite (Partek), Spotfire (TIBCO), JMP (SAS), and IPA (Ingenuity). DNA was analyzed on the INFINIUM® HumanMethylation450 BeadChip (Illumina). DNA was bisulfite-modified using the Zymo DNA Gold Methylation kit (Zymo Research) and amplified with bisulfite specific sequencing primers targeting the CD274 promoter region. PCR products were TA-subcloned and sequenced using standard methods (ABI). ABI sequence files were analyzed using BIQ Analyzer software (C. Bock).
Cells from each of the cell lines were exposed to one of five conditions: (1) no treatment; (2) treatment with 1 mM 5-azacitidine-dC (5-aza-dC, a DNA demethylation agent); (3) treatment with 0.1 mM trichostatin A (TSA, a class I and class II mammalian histone […]); (4) treatment with 1 ng/mL interferon gamma (IFNg); or (5) treatment with a combination of 5-aza-dC, TSA, and IFNg. PD-L1 RNA expression was then measured by qRT-PCR.

For the next assay, the system named is PD-L1 expression. Nature of the assay: PD-L1 expression after 5-aza-dC treatment of the CGP NSCLC cell line panel (FIG. 6C, 6D). It counts as cell-based, human. On the procedure: as §1, §2
NSCLC cell lines from the Cancer Genome Project (CGP) were used to create a scatter plot directly comparing smoothened CpG1 and CpG5 methylation (M-value) on the X axis and PD-L1 expression (RNA-seq, Log 2-count) on the Y axis. […] PD-L1 baseline expression in these cell lines is highly affected by the level of promoter methylation. The CGP cell lines analyzed in FIG. 6A were then categorized into three methylation groups: (1) low (i.e., low to no methylation at both CpG1 and CpG5), (2) intermediate (i.e., CpG1 or CpG5 site methylated), or (3) high (CpG1 and CpG5 both methylated). These groups were plotted on the X axis, with basal PD-L1 expression by RNA-seq plotted on the Y and median expression shown for each group. […] Group (1) (i.e., low) had the highest median PD-L1 expression, with Group (2) (i.e., intermediate) and Group (3) (i.e., high) methylation groups showing lower median PD-L1 expression.
The cell lines in the CPG NSCLC cell line panel were then treated with 5-aza-dC in order to the effect global demethylation would have on PD-L1 expression in a dataset with a larger number of cell lines. […] Additionally, two cell lines in this panel are known to have been raised from two separate samples from one patient, H1993 (low) and H2073 (intermediate).

For `Nc1ncn([C@H]2C[C@H](O)[C@@H](CO)O2)c(=O)n1` [5-aza-dC, 5-azacitidine-dC], the “PD-L1 RNA expression” value in the assay on PD-L1 RNA expression (A427 (high methylation), 3 days of 5-aza-dC treatment) is listed as “increased”; in the assay with PD-L1 RNA expression (H322T (medium methylation), 3 days of 5-aza-dC treatment) it was “increased”; in the assay with PD-L1 RNA expression (H661 (high methylation at CpG1 and CpG5), 3 days of 5-aza-dC treatment) it was “increased”; in the assay with PD-L1 RNA expression (LXFL529 (high methylation), 3 days of 5-aza-dC treatment), “increased”. Besides, the PD-L1 expression entry with PD-L1 expression (CGP NSCLC cell line panel treated with 5-aza-dC) is listed as “significantly induced”; in the assay with PD-L1 expression (H1993 (low methylation) following 5-aza-dC treatment), “no significant changes”; in the assay with PD-L1 expression (H2073 (intermediate methylation) following 5-aza-dC treatment) it was “significant PD-L1 expression induction”. Moreover, in the assay on PD-L1 expression (only Group (3) (high methylation) cell lines, 5-aza-dC), the “induction of methylation-suppressed PD-L1 expression” value is “significant induction”.

On to `CC(/C=C/C(=O)NO)=C\[C@@H](C)C(=O)c1ccc(N(C)C)cc1` [TSA, trichostatin A], for which, in the assay on PD-L1 RNA expression (H322T only, of H661, LXFL529, A427, H2073, H322T, H1993, 0.1 mM TSA), the “PD-L1 RNA expression” value is “increase”.

Source of the values: patent US11254987B2, “PD-L1 promoter methylation in cancer” (Genentech, Inc., priority 2015, dated 2022).
